US10442815B2, “Tricyclic heterocyclic compounds as phosphoinositide 3-kinase inhibitors” (Karus Therapeutics Limited, priority 2015, dated 2019)

Assays:
[1] = molecular target: T1, PI3K p110α (Homo sapiens, UniProt P42336); assay: IC50 determination, HTRF biochemical assay (Reaction Biology Corp.)
T1 construct: assay run at Proqinase GmbH
From the text: (§1) Biochemical activity against class I PI3K isoforms was confirmed by either Ki determination using the non-radiometric ADP-Glo™ assay (Promega, Madison, Wis., USA) at Proqinase GmbH, or IC50 determination using the HTRF biochemical assay at Reaction Biology Corp.

[2] = molecular target: T2, PI3K p110β (Homo sapiens, UniProt P42338); assay: as above
T2 construct: assay run at Proqinase GmbH
From the text: as §1

[3] = molecular target: T3, PI3K p110γ (Homo sapiens, UniProt P48736); assay: as above
T3 construct: assay run at Proqinase GmbH
From the text: as §1

[4] = molecular target: T4, PI3K p110δ (Homo sapiens, UniProt O00329); assay: as above
T4 construct: assay run at Proqinase GmbH
From the text: as §1

[5] = Plasma PK of comparative compound without sulfur moiety in male CD1 mice; type: in vivo, mouse; details: Mesylate Salt
Protocol: Formulation: 10% DMSO, 90% Saline
Dosing: 10 mg/kg P.O. and 5 mg/kg I.V.

[6] = molecular target: T1, PI3K p110α; assay: Ki determination, non-radiometric ADP-Glo assay (Proqinase GmbH); type: biochemical
From the text: as §1

[7] = molecular target: T2, PI3K p110β; assay: as above; type: biochemical
From the text: as §1

[8] = molecular target: T3, PI3K p110γ; assay: as above; type: biochemical
From the text: as §1

[9] = molecular target: T4, PI3K p110δ; assay: as above; type: biochemical
From the text: as §1

[10] = Plasma PK of Example B, oral bioavailability and clearance in male Balb/c mice; type: in vivo, mouse; details: Mesylate Salt
Protocol: Animals in Group 2 were administered with oral solution formulation of Example B in 5% NMP, 5% Solutol HS and 90% of 20% HPβCD at a dose of 10 mg/kg. Dosing: 10 mg/kg P.O. and 3 mg/kg I.V.

[11] = Plasma PK of compound K of WO 2011/021038 in male Balb/c mice; type: in vivo, mouse; details: for F: PO 10 mg/kg vs IV 3 mg/kg, male Balb/c mouse
Protocol: Animals in Group 1 were administered intravenously with compound K solution formulation in 5% NMP, 5% solutol HS-15 and 90% normal saline via tail vein at a dose of 3 mg/kg.
Animals in Group 2 were administered with oral solution formulation of compound K in 5% NMP, 5% solutol HS-15 and 90% normal saline at a dose of 10 mg/kg;
Dosing: 10 mg/kg P.O. and 3 mg/kg I.V.

[12] = IV, 5 mg/kg, male CD1 mouse plasma
[13] = IV, 3 mg/kg, male Balb/c mouse plasma
[14] = IV, 3 mg/kg, male Balb/c mouse plasma, read-out: Vss
[15] = PO, 10 mg/kg, male Balb/c mouse plasma

T1 sequence (P42336 whole entry): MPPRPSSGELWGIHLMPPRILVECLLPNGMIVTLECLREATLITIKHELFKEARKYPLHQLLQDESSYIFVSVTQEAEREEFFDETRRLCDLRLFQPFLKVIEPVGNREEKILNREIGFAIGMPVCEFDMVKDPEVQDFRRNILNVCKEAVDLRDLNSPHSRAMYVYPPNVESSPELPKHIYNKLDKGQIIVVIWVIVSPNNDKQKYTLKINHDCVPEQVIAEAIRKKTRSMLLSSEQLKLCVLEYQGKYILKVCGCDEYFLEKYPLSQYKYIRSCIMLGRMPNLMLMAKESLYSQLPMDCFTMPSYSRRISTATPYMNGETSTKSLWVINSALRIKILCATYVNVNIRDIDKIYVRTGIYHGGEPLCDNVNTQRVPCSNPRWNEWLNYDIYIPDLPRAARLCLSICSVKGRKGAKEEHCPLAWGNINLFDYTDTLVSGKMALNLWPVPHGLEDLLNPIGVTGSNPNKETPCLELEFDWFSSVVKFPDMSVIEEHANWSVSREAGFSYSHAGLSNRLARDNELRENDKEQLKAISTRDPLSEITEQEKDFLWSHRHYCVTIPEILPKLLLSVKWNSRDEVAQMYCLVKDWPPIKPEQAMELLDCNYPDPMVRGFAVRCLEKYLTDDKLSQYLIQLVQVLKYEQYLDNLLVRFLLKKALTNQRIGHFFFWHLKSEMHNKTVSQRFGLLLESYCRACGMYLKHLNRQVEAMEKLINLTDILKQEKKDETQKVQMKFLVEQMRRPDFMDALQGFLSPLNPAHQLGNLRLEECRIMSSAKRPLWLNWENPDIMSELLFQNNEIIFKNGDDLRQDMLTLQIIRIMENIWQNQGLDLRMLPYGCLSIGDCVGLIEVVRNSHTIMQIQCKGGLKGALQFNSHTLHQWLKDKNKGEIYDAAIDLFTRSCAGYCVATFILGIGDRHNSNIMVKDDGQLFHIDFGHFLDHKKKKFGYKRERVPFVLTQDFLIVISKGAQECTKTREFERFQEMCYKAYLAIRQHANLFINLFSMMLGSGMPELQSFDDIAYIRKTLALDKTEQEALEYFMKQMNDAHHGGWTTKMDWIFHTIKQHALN
T1 sequence (P27986 whole entry partner): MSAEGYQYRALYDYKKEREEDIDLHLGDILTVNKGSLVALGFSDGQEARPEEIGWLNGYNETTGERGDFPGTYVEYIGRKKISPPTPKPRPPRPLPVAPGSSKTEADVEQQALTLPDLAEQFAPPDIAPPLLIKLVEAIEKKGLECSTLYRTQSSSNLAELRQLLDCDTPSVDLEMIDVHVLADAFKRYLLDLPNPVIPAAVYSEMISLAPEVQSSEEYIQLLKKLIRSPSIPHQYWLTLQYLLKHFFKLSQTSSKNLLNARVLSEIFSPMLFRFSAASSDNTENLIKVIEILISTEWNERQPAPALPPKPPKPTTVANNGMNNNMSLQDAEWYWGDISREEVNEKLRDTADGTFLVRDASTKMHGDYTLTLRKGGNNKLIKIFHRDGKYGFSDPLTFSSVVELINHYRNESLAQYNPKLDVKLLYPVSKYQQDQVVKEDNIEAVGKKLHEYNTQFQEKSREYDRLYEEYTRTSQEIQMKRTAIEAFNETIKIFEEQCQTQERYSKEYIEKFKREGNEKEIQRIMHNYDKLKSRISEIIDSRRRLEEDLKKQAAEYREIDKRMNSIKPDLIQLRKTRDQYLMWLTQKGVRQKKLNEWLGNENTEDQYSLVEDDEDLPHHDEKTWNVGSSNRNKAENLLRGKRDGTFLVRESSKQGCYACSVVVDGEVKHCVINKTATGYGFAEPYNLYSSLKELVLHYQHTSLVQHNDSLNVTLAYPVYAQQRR
T4 sequence (O00329 whole entry): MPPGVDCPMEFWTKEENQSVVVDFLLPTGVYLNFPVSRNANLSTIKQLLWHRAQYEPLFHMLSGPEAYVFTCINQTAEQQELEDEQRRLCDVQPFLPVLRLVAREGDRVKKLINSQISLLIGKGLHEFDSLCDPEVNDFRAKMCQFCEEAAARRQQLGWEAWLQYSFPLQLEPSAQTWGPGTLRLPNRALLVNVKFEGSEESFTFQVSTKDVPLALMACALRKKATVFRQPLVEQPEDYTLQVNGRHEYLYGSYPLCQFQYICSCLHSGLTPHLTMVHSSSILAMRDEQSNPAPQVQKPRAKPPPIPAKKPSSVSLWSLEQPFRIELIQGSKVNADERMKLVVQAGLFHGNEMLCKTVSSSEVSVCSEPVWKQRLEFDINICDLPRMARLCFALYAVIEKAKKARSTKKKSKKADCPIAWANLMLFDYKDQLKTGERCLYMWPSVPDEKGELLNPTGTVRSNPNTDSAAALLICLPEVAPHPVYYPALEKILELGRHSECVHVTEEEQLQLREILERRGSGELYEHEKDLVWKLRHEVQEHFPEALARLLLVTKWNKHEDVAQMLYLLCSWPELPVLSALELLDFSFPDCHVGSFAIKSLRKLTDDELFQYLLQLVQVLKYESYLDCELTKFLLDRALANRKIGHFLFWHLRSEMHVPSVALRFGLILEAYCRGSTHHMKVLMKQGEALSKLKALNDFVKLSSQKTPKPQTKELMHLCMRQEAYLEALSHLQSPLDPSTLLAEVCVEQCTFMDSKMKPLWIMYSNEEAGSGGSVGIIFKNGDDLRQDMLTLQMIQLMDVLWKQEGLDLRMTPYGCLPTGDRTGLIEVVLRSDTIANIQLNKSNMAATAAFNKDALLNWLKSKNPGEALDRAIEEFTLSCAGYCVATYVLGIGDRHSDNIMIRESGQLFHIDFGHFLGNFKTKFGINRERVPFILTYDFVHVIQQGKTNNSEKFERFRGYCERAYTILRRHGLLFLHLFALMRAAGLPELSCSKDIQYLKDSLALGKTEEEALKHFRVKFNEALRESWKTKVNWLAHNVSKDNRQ
T4 sequence (P27986 whole entry partner): as the sequence (P27986 whole entry partner) above
T2 sequence (P42338 whole entry): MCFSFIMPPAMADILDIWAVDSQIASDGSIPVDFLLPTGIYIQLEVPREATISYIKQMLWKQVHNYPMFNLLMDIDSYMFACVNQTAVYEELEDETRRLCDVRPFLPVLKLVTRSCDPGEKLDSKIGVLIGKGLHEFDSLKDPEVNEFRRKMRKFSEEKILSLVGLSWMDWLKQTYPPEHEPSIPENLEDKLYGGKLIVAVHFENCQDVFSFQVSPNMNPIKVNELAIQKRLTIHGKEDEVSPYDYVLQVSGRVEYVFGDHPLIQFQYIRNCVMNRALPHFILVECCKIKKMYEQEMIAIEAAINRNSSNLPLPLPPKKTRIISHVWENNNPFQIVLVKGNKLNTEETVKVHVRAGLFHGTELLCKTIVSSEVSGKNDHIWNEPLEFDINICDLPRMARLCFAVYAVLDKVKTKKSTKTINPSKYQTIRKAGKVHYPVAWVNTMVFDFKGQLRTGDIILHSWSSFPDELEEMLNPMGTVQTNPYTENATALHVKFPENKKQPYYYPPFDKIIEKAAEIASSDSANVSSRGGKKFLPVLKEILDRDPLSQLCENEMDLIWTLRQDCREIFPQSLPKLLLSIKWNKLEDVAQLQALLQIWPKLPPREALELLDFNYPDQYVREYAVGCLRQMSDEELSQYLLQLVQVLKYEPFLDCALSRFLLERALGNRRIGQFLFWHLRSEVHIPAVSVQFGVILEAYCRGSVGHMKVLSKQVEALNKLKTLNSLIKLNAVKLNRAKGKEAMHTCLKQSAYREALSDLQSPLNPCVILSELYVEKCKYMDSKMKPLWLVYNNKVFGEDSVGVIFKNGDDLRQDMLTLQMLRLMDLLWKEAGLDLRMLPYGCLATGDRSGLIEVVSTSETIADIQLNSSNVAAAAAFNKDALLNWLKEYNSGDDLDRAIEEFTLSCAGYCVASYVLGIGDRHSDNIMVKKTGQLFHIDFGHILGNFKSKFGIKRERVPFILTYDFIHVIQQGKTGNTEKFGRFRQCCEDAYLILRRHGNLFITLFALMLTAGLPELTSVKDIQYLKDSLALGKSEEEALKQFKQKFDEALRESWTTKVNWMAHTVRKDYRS
T2 sequence (P27986 whole entry partner): as the sequence (P27986 whole entry partner) above
T3 sequence (P48736 whole entry): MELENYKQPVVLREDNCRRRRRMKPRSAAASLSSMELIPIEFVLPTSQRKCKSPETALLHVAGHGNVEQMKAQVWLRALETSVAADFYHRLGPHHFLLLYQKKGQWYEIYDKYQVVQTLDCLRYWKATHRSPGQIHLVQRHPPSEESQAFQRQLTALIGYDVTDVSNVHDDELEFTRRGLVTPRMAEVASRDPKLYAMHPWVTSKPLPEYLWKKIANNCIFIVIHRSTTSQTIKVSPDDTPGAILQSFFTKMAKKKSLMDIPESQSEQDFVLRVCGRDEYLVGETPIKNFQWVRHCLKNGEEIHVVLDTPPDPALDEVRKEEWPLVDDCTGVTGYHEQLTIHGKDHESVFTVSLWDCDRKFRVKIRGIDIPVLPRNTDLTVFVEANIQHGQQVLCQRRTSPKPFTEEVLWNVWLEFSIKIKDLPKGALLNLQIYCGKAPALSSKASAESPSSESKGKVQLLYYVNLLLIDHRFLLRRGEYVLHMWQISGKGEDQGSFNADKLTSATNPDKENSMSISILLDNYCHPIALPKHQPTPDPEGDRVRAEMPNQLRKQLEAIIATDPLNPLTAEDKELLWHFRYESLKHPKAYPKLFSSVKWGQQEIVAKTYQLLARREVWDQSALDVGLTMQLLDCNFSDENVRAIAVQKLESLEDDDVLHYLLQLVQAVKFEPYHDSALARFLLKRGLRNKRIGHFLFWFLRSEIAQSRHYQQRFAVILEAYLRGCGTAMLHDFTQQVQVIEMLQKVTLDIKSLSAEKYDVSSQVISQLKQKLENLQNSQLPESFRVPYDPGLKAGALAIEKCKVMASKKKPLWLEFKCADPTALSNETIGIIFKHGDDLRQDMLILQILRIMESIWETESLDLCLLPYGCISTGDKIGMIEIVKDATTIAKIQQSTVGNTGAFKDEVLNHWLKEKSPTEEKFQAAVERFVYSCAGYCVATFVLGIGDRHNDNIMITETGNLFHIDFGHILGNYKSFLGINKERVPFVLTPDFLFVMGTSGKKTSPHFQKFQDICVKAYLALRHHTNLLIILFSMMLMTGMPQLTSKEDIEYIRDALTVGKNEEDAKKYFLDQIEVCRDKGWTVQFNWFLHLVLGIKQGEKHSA

Q: With `O=S1(=O)CCCN(Cc2cnc3oc4c(N5CCOCC5)nc(-c5cccc6[nH]ccc56)nc4c3c2)CC1` [Example AA, 4-{[4-(1H-indol-4-yl)-6-(morpholin-4-yl)-8-oxa-3,5,10-triazatricyclo[7.4.0.0^2,^7]trideca-1(13),2(7),3,5,9,11-hexaen-12-yl]methyl}-1λ^6,4-thiazepane-1,1-dione] as the compound, how does the IC50 [1] read?
A: Its IC50 is ≤ 500 nM.

Q: What about the IC50 [2] of the same compound?
A: The IC50 was ≤ 500 nM.

Q: And the IC50 [3]?
A: The IC50 was 500 to 1000 nM.

Q: What about the IC50 [4] of the same compound?
A: Its IC50 is ≤ 500 nM.

Q: For `O=S1(=O)CC2(CN(Cc3cnc4oc5c(N6CCOCC6)nc(-c6cccc7[nH]ccc67)nc5c4c3)C2)C1` [Example AB, 6-{[4-(1H-Indol-4-yl)-6-(morpholin-4-yl)-8-oxa-3,5,10-triazatricyclo[7.4.0.0^2^,7]trideca-1(13),2(7),3,5,9,11-hexaen-12-yl]methyl}-2λ^6-thia-6-azaspiro[3.3]heptane-2,2-dione], which IC50 [1] is on record?
A: The IC50 was ≤ 500 nM.

Q: And the IC50 [2]?
A: The IC50 was ≤ 500 nM.

Q: What about the IC50 [3] of the same compound?
A: The IC50 was 500 to 1000 nM.

Q: And the IC50 [4]?
A: The IC50 was ≤ 500 nM.

Q: With `c1cc(-c2nc(N3CCOCC3)c3oc4ncc(CN5CCCCC5)cc4c3n2)c2cc[nH]c2c1` as the compound, how does the AUClast [5, 12] read?
A: The AUClast was 1245 ng·mL·h.

Q: What about the clearance [5, 12] of the same compound?
A: Its clearance is 66.1 mL/min/kg.

Q: What about the bioavailability ([5]; plasma, PO 10 mg/kg vs IV 5 mg/kg, male CD1 mouse) of the same compound?
A: Its bioavailability is 27.8%.

Q: Which results are given for `c1cc(-c2nc(N3CCOCC3)c3oc4ncc(CN5CCSC5)cc4c3n2)c2cc[nH]c2c1` [Example AC, 4-(1H-Indol-4-yl)-6-(morpholin-4-yl)-12-[(1,3-thiazolidin-3-yl)methyl]-8-oxa-3,5,10-triazatricyclo[7.4.0.0^2^,7]trideca-1(13),2(7),3,5,9,11-hexaene]?
A: IC50 [1]: ≤ 500 nM; IC50 [2]: ≤ 500 nM; IC50 [3]: ≤ 500 nM; IC50 [4]: ≤ 500 nM

Q: Which results are given for `[O-][S+]1CCN(Cc2cnc3oc4c(N5CCOCC5)nc(-c5cccc6[nH]ccc56)nc4c3c2)CC1` [Example B, 4-{[4-(1H-Indol-4-yl)-6-(morpholin-4-yl)-8-oxa-3,5,10-triazatricyclo[7.4.0.0^2,7]trideca-1(13),2(7),3,5,9,11-hexaen-12-yl]methyl}-1λ^4-thiomorpholin-1-one]?
A: Ki [6]: 500 to 1000 nM; Ki [7]: ≤ 500 nM; Ki [8]: 1000 to 10000 nM; Ki [9]: ≤ 500 nM; AUC(0-inf) [10, 13]: 2940 ng·h/mL; AUClast [10, 13]: 2802.91 ng·mL·h; Cmax [10, 13]: 5320 ng/mL; clearance [10, 13]: 17 mL/min/kg; half-life [10, 13]: 206 min; Vd [10, 14]: 1.44 L/kg; AUC(0-inf) [10, 15]: 7700 ng·h/mL; AUC(0-t) [10, 15]: 7690 ng·h/mL; Cmax [10, 15]: 3830 ng/mL; Tmax [10, 15]: 30 min; bioavailability ([10]; plasma, PO 10 mg/kg vs IV 3 mg/kg, male Balb/c mouse): 82%

Q: For `CCS(=O)(=O)CCN(C)Cc1cnc2oc3c(N4CCOCC4)nc(-c4cccc5[nH]ccc45)nc3c2c1` [Example AE], which IC50 [1] is on record?
A: Its IC50 is ≤ 500 nM.

Q: And the IC50 [2]?
A: The IC50 was ≤ 500 nM.

Q: What about the IC50 [3] of the same compound?
A: Its IC50 is ≤ 500 nM.

Q: What about the IC50 [4] of the same compound?
A: Its IC50 is ≤ 500 nM.

Q: What does the source list for `CS(=O)(=O)CCNCc1cnc2oc3c(N4CCOCC4)nc(-c4cccc5[nH]ccc45)nc3c2c1` [Example AD, {[4-(1H-Indol-4-yl)-6-(morpholin-4-yl)-8-oxa-3,5,10-triazatricyclo[7.4.0.0^2^,7]trideca-1(13),2(7),3,5,9,11-hexaen-12-yl]methyl}(2-methanesulfonylethyl)amine]?
A: IC50 [1]: ≤ 500 nM; IC50 [2]: ≤ 500 nM; IC50 [3]: ≤ 500 nM; IC50 [4]: ≤ 500 nM

Q: Which IC50 [1] does the source give for `c1cc(-c2nc(N3CCOCC3)c3oc4ncc(CN5CCSCC5)cc4c3n2)c2cc[nH]c2c1` [Example AF, 4-(1H-indol-4-yl)-6-(morpholin-4-yl)-12-[(thiomorpholin-4-yl)methyl]-8-oxa-3,5,10-triazatricyclo[7.4.0.0^2^,7]trideca-1(13),2(7),3,5,9,11-hexaene] here?
A: The IC50 was ≤ 500 nM.

Q: And the IC50 [2]?
A: Its IC50 is ≤ 500 nM.

Q: And the IC50 [3]?
A: Its IC50 is 500 to 1000 nM.

Q: And the IC50 [4]?
A: The IC50 was ≤ 500 nM.

Q: What does the source list for `c1cc(-c2nc(N3CCOCC3)c3oc4ncc(CN5CCOCC5)cc4c3n2)c2cc[nH]c2c1` [compound K in WO 2011/021038]?
A: AUC(0-inf) [11, 13]: 2690 ng·h/mL; AUClast [11, 13]: 2654.15 ng·mL·h; Cmax [11, 13]: 2980 ng/mL; clearance [11, 13]: 18.6 mL/min/kg; half-life [11, 13]: 79.8 min; Vd [11, 14]: 1.81 L/kg; F [11]: 55%; F ([11]; listed as Example K from W02011/021038 (comparative)): 50%; AUC(0-inf) [11, 15]: 5140 ng·h/mL; AUC(0-t) [11, 15]: 4890 ng·h/mL; Cmax [11, 15]: 1720 ng/mL; Tmax [11, 15]: 15 min
